Laboratory results published in patent US6914045B2, “Glycopeptide antibiotics” (Wyeth Holdings Corporation, priority 2001, dated 2005).
Converted amounts (≈) assume the structure as drawn.

Columns and labels:
Assay in all cases: in vitro antibacterial evaluation, MIC by broth dilution
Assay type in all cases: cell-based
Escherichia coli = conditions: 18 hours at 35° C.
Staphylococcus sp. = conditions: broth dilution, 18 hours at 35° C.
In short: (§1)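 Step 1: dilute antibiotic across 64-0.06 μg/mL in Muller-Hinton II […]. Step 2: inoculate at 5×10^5 CFU/mL.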

Streptococcus sp. = conditions: broth dilution, 18 hours at 35° C.
In short: as §1

Enterococcus sp. = conditions: broth dilution, 18 hours at 35° C.
In short: as §1

MIC Escherichia coli (ATCC 25922) (Escherichia coli): >128 µg/mL | MIC Escherichia coli (GC 4559) (Escherichia coli): >128 µg/mL | MIC Escherichia coli (GC 4560) (Escherichia coli): >128 µg/mL | MIC Coagulase Negative Staphylococcus (GC 4547) (Staphylococcus sp.): >128 µg/mL | MIC Coagulase Negative Staphylococcus (GC 4548) (Staphylococcus sp.): >128 µg/mL | MIC Coagulase Negative Staphylococcus (GC 4549) (Staphylococcus sp.): >128 µg/mL | MIC Coagulase Negative Staphylococcus (GC 4551) (Staphylococcus sp.): >128 µg/mL | MIC Coagulase Negative Staphylococcus (GC 6257) (Staphylococcus sp.): >128 µg/mL | MIC Staphylococcus aureus (ATCC 29213) (Staphylococcus sp.): >128 µg/mL | MIC Staphylococcus aureus (GC 1131) (Staphylococcus sp.): >128 µg/mL | MIC Staphylococcus aureus (GC 3051) (Staphylococcus sp.): >128 µg/mL | MIC Staphylococcus aureus (GC 3053) (Staphylococcus sp.): >128 µg/mL | MIC Staphylococcus aureus (GC 4541) (Staphylococcus sp.): >128 µg/mL | MIC Staphylococcus aureus (GC 4542) (Staphylococcus sp.): >128 µg/mL | MIC Staphylococcus aureus (GC 4544) (Staphylococcus sp.): >128 µg/mL | MIC Staphylococcus aureus (GC 4545) (Staphylococcus sp.): >128 µg/mL | MIC Staphylococcus aureus-SMITH (GC 4543) (Staphylococcus sp.): >128 µg/mL | MIC Staphylococcus aureus (ATCC 29213) (Staphylococcus sp.; strain ATCC 29213): >128 µg/mL | MIC Staphylococcus aureus (GC 1131) (Staphylococcus sp.; strain GC 1131): >128 µg/mL | MIC Staphylococcus aureus (GC 3051) (Staphylococcus sp.; strain GC 3051): >128 µg/mL | MIC Staphylococcus aureus (GC 3053) (Staphylococcus sp.; strain GC 3053): >128 µg/mL | MIC Staphylococcus aureus (GC 4541) (Staphylococcus sp.; strain GC 4541): >128 µg/mL | MIC Staphylococcus aureus (GC 4542) (Staphylococcus sp.; strain GC 4542): >128 µg/mL | MIC Staphylococcus aureus-SMITH (GC 4543) (Staphylococcus sp.; strain GC 4543): >128 µg/mL | MIC Staphylococcus aureus (GC 4544) (Staphylococcus sp.; strain GC 4544): >128 µg/mL | MIC Staphylococcus aureus (GC 4545) (Staphylococcus sp.; strain GC 4545): >128 µg/mL | MIC Coagulase Negative Staphylococcus (GC 4547) (Staphylococcus sp.; strain GC 4547): >128 µg/mL | MIC Coagulase Negative Staphylococcus (GC 4548) (Staphylococcus sp.; strain GC 4548): >128 µg/mL | MIC Coagulase Negative Staphylococcus (GC 4549) (Staphylococcus sp.; strain GC 4549): >128 µg/mL | MIC Coagulase Negative Staphylococcus (GC 4551) (Staphylococcus sp.; strain GC 4551): >128 µg/mL | MIC Coagulase Negative Staphylococcus (GC 6257) (Staphylococcus sp.; strain GC 6257): >128 µg/mL | MIC Streptococcus agalactiae (GC 4564) (Streptococcus sp.): >128 µg/mL | MIC Streptococcus pneumoniae (ATCC 6301) (Streptococcus sp.): >128 µg/mL | MIC Streptococcus pneumoniae (GC 1894) (Streptococcus sp.): >128 µg/mL | MIC Streptococcus pneumoniae (GC 4565) (Streptococcus sp.): >128 µg/mL | MIC Streptococcus pyogenes (GC 4563) (Streptococcus sp.): >128 µg/mL | MIC Streptococcus pneumoniae (ATCC 6301) (Streptococcus sp.; inoculum 5×10^5 CFU/mL, strain ATCC 6301): >128 µg/mL | MIC Streptococcus pneumoniae (GC 1894) (Streptococcus sp.; inoculum 5×10^5 CFU/mL, strain GC 1894): >128 µg/mL | MIC Streptococcus pyogenes (GC 4563) (Streptococcus sp.; inoculum 5×10^5 CFU/mL, strain GC 4563): >128 µg/mL | MIC Streptococcus agalactiae (GC 4564) (Streptococcus sp.; inoculum 5×10^5 CFU/mL, strain GC 4564): >128 µg/mL | MIC Streptococcus pneumoniae (GC 4565) (Streptococcus sp.; inoculum 5×10^5 CFU/mL, strain GC 4565): >128 µg/mL | MIC Enterococcus avium (GC 4558) (Enterococcus sp.): 128 µg/mL (≈ 90.4 µM) | MIC Enterococcus faecalis (ATCC 29212) (Enterococcus sp.): >128 µg/mL | MIC Enterococcus faecalis (GC 2242) (Enterococcus sp.): >128 µg/mL | MIC Enterococcus faecalis (GC 2691) (Enterococcus sp.): >128 µg/mL | MIC Enterococcus faecalis (GC 3059) (Enterococcus sp.): >128 µg/mL | MIC Enterococcus faecalis (GC 4552) (Enterococcus sp.): >128 µg/mL | MIC Enterococcus faecalis (GC 4553) (Enterococcus sp.): >128 µg/mL | MIC Enterococcus faecalis (GC 4554) (Enterococcus sp.): >128 µg/mL | MIC Enterococcus faecalis (GC 6189) (Enterococcus sp.): >128 µg/mL | MIC Enterococcus faecium (GC 2243) (Enterococcus sp.): >128 µg/mL | MIC Enterococcus faecium (GC 4556) (Enterococcus sp.): >128 µg/mL | MIC Enterococcus faecium (GC 4557) (Enterococcus sp.): >128 µg/mL | MIC Enterococcus faecalis (ATCC 29212) (Enterococcus sp.; inoculum 5×10^5 CFU/mL, strain ATCC 29212): >128 µg/mL | MIC Enterococcus faecalis (GC 2242) (Enterococcus sp.; inoculum 5×10^5 CFU/mL, strain GC 2242): >128 µg/mL | MIC Enterococcus faecium (GC 2243) (Enterococcus sp.; inoculum 5×10^5 CFU/mL, strain GC 2243): >128 µg/mL | MIC Enterococcus faecalis (GC 2691) (Enterococcus sp.; inoculum 5×10^5 CFU/mL, strain GC 2691): >128 µg/mL | MIC Enterococcus faecalis (GC 3059) (Enterococcus sp.; inoculum 5×10^5 CFU/mL, strain GC 3059): >128 µg/mL | MIC Enterococcus faecalis (GC 4552) (Enterococcus sp.; inoculum 5×10^5 CFU/mL, strain GC 4552): >128 µg/mL | MIC Enterococcus faecalis (GC 4553) (Enterococcus sp.; inoculum 5×10^5 CFU/mL, strain GC 4553): >128 µg/mL | MIC Enterococcus faecalis (GC 4554) (Enterococcus sp.; inoculum 5×10^5 CFU/mL, strain GC 4554): >128 µg/mL | MIC Enterococcus faecium (GC 4556) (Enterococcus sp.; inoculum 5×10^5 CFU/mL, strain GC 4556): >128 µg/mL | MIC Enterococcus faecium (GC 4557) (Enterococcus sp.; inoculum 5×10^5 CFU/mL, strain GC 4557): >128 µg/mL | MIC Enterococcus avium (GC 4558) (Enterococcus sp.; inoculum 5×10^5 CFU/mL, strain GC 4558): 128 µg/mL (≈ 90.4 µM) | MIC Enterococcus faecalis (GC 6189) (Enterococcus sp.; inoculum 5×10^5 CFU/mL, strain GC 6189): >128 µg/mL
Structure (SMILES): CC(c1ccccc1)C1NC(=O)CNC(=O)C(CO)NC(=O)C(C(O)C2CNC(=N)N2C2OC(CO)C(O)C3OC(C)(C)OC32)NC(=O)C(C(O)C2CNC(=N)N2)NC(=O)C(Cc2ccc(OC3OC(CO)C(OC4OC(CO)C(O)C5OC(C)(C)OC45)C4OC(C)(C)OC34)cc2)NC1=O (stereo not shown) [Example 229a]
MIC Staphylococcus haemolyticus (GC 4546) (Staphylococcus sp.): >128 µg/mL | MIC Staphylococcus haemolyticus (GC 4546) (Staphylococcus sp.; strain GC 4546): >128 µg/mL
